Experimental data as given in PubChem BioAssay AID1918991 (Molecular Pharmacology Branch, DTP, NCI, 2023).
Several values for one entry are separate records, joined by “and”; a condition that tells them apart may be missing. Identical values can stand only once.

Test system: 186277-243-T-J2-PDC complex spheroid growth
Assay: Anticancer human tumor 186277-243-T-J2-PDC patient-derived colon adenocarcinoma cell line growth inhibition [AhR]
Conditions: for viability, T/C: stronger effect = lower value
Source text: Multicellular complex tumor spheroid response to aryl hydrocarbon receptor antagonists in combination with a variety of drugs and investigational agents in selected tumor cell lines
The current study was undertaken to assess response to aryl hydrocarbon receptor antagonists in combination with standard-of-care drugs and investigational agents in solid tumor complex spheroid models. Complex spheroids include a stromal component modeled by human endothelial cells (HUVEC) and fibroblasts modeled by human mesenchymal stem cells (MSCs). The concentration ranges selected for each drug and investigational agent were based upon clinically achievable concentrations if the clinical Cmax of the agent was known.
Compounds. The drugs and investigational agents: BAY 2416964 (NSC825713), GNF351 (NSC835774), CH-223191 (NSC835775), CPI-455 (NSC825282), aza-TdCyd (NSC777586), decitabine (NSC127716), belinostat (NSC758774), entinostat (NSC756642), pevonedistat (NSC761192), tazemetostat (NSC777109), talazoparib (NSC765396), olaparib (NSC753686), selinexor (NSC780203), nedisertib (M3814, NSC802822), bortezomib (NSC756655), venetoclax (NSC766270), doxorubicin (NSC123127), elimusertib (BAY189344, NSC800525), ceralasertib (AZD6738, NSC777638), TAK-243 (NSC785004), alisertib (NSC759677), etoposide (NSC141540), topotecan (NSC609699), eribulin (NSC707389), gemcitabine (NSC613327), carboplatin (NSC241240), cisplatin (NSC119875), and SN-38 (NSC673596) were obtained from the National Cancer Institute (NCI) Developmental Therapeutics Program Chemical Repository (32). The FDA-approved anticancer drug set is available from the Developmental Therapeutics Program at https://dtp.cancer.gov/organization/dscb/obtaining/available plates.htm. […] The stock solutions were prepared in dimethyl sulfoxide (DMSO, Sigma-Aldrich, St. Louis, MO, cat. D2650), except for the platinum compounds which were prepared in saline (Quality Biological, Gaithersburg, MD, cat. 114-055-101), at 800-fold the tested concentration and stored at -70 degrees C prior to their use. All drugs and investigational agents were tested over a range starting from a high concentration at or near the clinical Cmax and decreasing in half-log increments. If the clinical Cmax for an agent had not been determined, the highest concentration tested was 10 microM (Table 1).
Cell Culture. All cells were maintained in an incubator at 37 degrees C and 5% CO2 with 95% humidity. The PDC lines were cultured according to standard operating procedures established by the NCI PDMR (https://pdmr.cancer.gov). Briefly, all PDCs were thawed and cultured in Matrigel-coated flasks prepared with a working solution of 1X Ham's F-12 nutrient mix, without supplementation (Invitrogen, Waltham, MA, cat. 11765054), 100 U/mL penicillin-streptomycin (Invitrogen, cat. 15140122), and 2.5% Matrigel (Corning Inc., Corning, NY, cat. 354248) for the first three passages. All PDCs were cultured in complete DMEM/F-12 media containing advanced DMEM/F-12 (Invitrogen, cat. 12634028), 4.9% defined fetal bovine serum, heat inactivated (HyClone Laboratories Inc., Logan, UT, cat. SH30070.03HI), 389 ng/mL hydrocortisone (Sigma-Aldrich, cat. H4001), 9.7 ng/mL human EGF recombinant protein (Invitrogen, cat. PHG0313), 23.4 microg/mL adenine (Sigma-Aldrich, cat. A2786), 97.3 U/mL penicillin-streptomycin (Invitrogen, cat. 15140122), 1.9 mM L-glutamine (Invitrogen, cat. 25030081), and 9.7 microM Y-27632 dihydrochloride (Tocris Bioscience, Bristol, United Kingdom, cat. 1254). The PDCs were cultured in complete DMEM/F12 media without 10 microM Y-27632 dihydrochloride for at least two passages prior to the screen. The established cell lines NCI-H1341 and […] were cultured in DMEM/F-12, HEPES (Invitrogen, cat. 11330032), 5% defined fetal bovine serum (HyClone Laboratories Inc., cat. SH30070.03), ITS premix universal culture supplement [insulin (5 microg/mL), transferrin (5 microg/mL), and selenious acid (5 ng/mL)] […]
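Further: spheroids exposed to compounds for seven days before the viability read.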
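Wherever viability, T/C is given: luminescent signal used as a stand-in for viable cell amount; 100% = DMSO vehicle control wells.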

IC50 (curve of compound)	Structure (SMILES)	viability, T/C (compound 0.0316 µM)	viability, T/C (compound 0.1 µM)	viability, T/C (compound 0.316 µM)	viability, T/C (compound 1 µM)	viability, T/C (compound 3.16 µM)	viability, T/C (compound 10 µM)	other results
0.0142 µM and 0.0156 µM and 0.00549 µM	CC(C)CC(NC(=O)C(Cc1ccccc1)NC(=O)c1cnccn1)B(O)O (centres undefined)	–	–	–	–	–	–	viability, T/C (compound 0.000949 µM): 106% and 98.7% and 108%; viability, T/C (compound 0.003 µM): 96.2% and 116% and 102%; viability, T/C (compound 0.03 µM): 0.39% and 1.22% and 0.15%; viability, T/C (compound 0.0949 µM): 0.17% and 1.7% and 0.16%; viability, T/C (compound 0.3 µM): 0.21% (2×) and 1.15%
> 10 µM	CC(C)c1c(-c2ccccc2)nc2c(C#N)c[nH]n2c1=O	103% and 105% and 93.4%	88.8% and 101% and 94.2%	107% and 95.9% and 94.8%	103% and 113% and 97.7%	96.4% and 107% and 96.9%	92% and 105% and 91.7%	–
–	CC(CO)NC(=O)c1cc(-c2ccc(Cl)cc2)nn(-c2cnn(C)c2)c1=O (centres undefined)	–	–	–	98.3% [middle of 21 runs]	–	85.9% [middle of 19 runs]	IC50 (compound alone, run of 07/12/2022): > 10 µM
> 10 µM and 7.52 µM and 5.33 µM	CC1(C)CCC(CN2CCN(c3ccc(C(=O)NS(=O)(=O)c4ccc(NCC5CCOCC5)c([N+](=O)[O-])c4)c(Oc4cnc5[nH]ccc5c4)c3)CC2)=C(c2ccc(Cl)cc2)C1	97.4% and 103% and 99.8%	99.3% and 105% and 95.2%	93.9% and 119% and 92.1%	98.4% and 99.1% and 101%	85.5% and 109% and 84.2%	–	–
0.0806 µM and 0.0816 µM and 0.0235 µM	CC1COCCN1c1cc(-c2ccnn2C)c2ccnc(-c3ccn[nH]3)c2n1 (centres undefined)	126% and 103% and 38.2%	–	8.06% and 11.5% and 3.15%	5.02% and 8.23% and 2.74%	–	–	viability, T/C (compound 0.00316 µM): 96.9% and 95.5% and 78.2%; viability, T/C (compound 0.01 µM): 94.7% and 106% and 89.9%
4.45 µM and 2.39 µM and 0.779 µM	CC1COCCN1c1cc(C2(S(C)(=N)=O)CC2)nc(-c2ccnc3[nH]ccc23)n1 (centres undefined)	102% and 98.7% and 97.3%	98% and 103% and 99%	99.5% and 92% and 73%	106% and 89.6% and 47.1%	67.5% and 37.4% and 6.44%	8.92% and 13.3% and 3.14%	–
> 3 µM	CCN(c1cc(-c2ccc(CN3CCOCC3)cc2)cc(C(=O)NCc2c(C)cc(C)[nH]c2=O)c1C)C1CCOCC1	–	–	–	–	–	–	viability, T/C (compound 0.00949 µM): 107% and 112% and 86.8%; viability, T/C (compound 0.03 µM): 99.7% and 104% and 85%; viability, T/C (compound 0.0949 µM): 95.2% and 112% and 74.4%; viability, T/C (compound 0.3 µM): 98.2% and 109% and 93.8%; viability, T/C (compound 0.949 µM): 101% and 112% and 91.5%; viability, T/C (compound 3 µM): 106% and 104% and 89.5%
> 0.1 µM and 0.0196 µM	CC[C@@]1(O)C(=O)OCc2c1cc1n(c2=O)Cc2cc3c(CN(C)C)c(O)ccc3nc2-1	106% and 37% and 119%	65.8% and 19.4% and 111%	–	–	–	–	viability, T/C (compound 0.000316 µM): 100% and 99.5% and 110%; viability, T/C (compound 0.001 µM): 94.2% and 104% and 99.4%; viability, T/C (compound 0.00316 µM): 104% and 95.7% and 114%; viability, T/C (compound 0.01 µM): 118% and 68.7% and 119%
–	CCc1c2c(nc3ccc(O)cc13)-c1cc3c(c(=O)n1C2)COC(=O)[C@]3(O)CC	–	–	–	–	–	–	viability, T/C (compound 0.000949 µM): 118% and 125% and 49.3%; viability, T/C (compound 0.003 µM): 111% and 144% and 37.7%; viability, T/C (compound 0.00949 µM): 70.2% and 115% and 18.8%; viability, T/C (compound 0.03 µM): 49.7% and 83% and 17.6%; viability, T/C (compound 0.0949 µM): 29.7% and 43.6% and 10.7%; viability, T/C (compound 0.3 µM): 15.3% and 26.9% and 7.34%
–	COc1cc(C2c3cc4c(cc3C(OC3OC5COC(C)OC5C(O)C3O)C3COC(=O)C23)OCO4)cc(OC)c1O (centres undefined)	97.2% and 86.2% and 92.7%	126% and 88.1% and 97.8%	118% and 44.4% and 142%	58.8% and 22.6% and 97.1%	51.1% and 17.5% and 85.7%	25.6% and 10% and 46.4%	–
–	COc1cc(Nc2ncc3c(n2)-c2ccc(Cl)cc2C(c2c(F)cccc2OC)=NC3)ccc1C(=O)O	95.8% and 121% and 27.3%	83.4% and 121% and 22.3%	74.4% and 119% and 20.1%	69.7% and 114% and 18.9%	79.1% and 117% and 22.9%	81.5% and 123% and 25.9%	–
9.19 µM and 8.76 µM and 2.56 µM	COc1ccc([C@@H](O)c2cc(-c3ncnc4cc(N5CCOCC5)ccc34)c(F)cc2Cl)nn1	103% and 94.6% and 86.8%	101% and 91.5% and 90.4%	115% and 102% and 95%	107% and 95.6% and 69.3%	108% and 87.9% and 46.4%	45.4% and 44.9% and 16.3%	–
